One compound from US20240407385A1, “HIGH PURITY PHYLLODULCIN EXTRACT” (SYMRISE AG, priority 2021, published 2024) can be followed below.

A short description of the assay: Sensory evaluation of sweetness compared with pure (R)-phyllodulcin (Example 4). Type of assay: in vivo. The conditions noted are these: dose 5 mg/kg; panel n=20. The method, then: Two samples (samples 1 and 2) were prepared by a method according to the invention. Particularly, the leaf material was extracted two times with ethyl acetate (in an amount of 5 times of the weight of the leaf material) and wherein the precipitation was performed with ethanol at 10° C. Furthermore, the solid was washed with ethanol (in an amount of 3 times of the weight of the solid) at 5° C.
Sample 3 was extracted from leaf material, however, no precipitation was performed.
The samples were then compared with the pure substance (R)-phyllodulcin with regard to their sensory evaluation.

The structures appear in SMILES notation.

With `COc1ccc([C@H]2Cc3cccc(O)c3C(=O)O2)cc1O` [(R)-phyllodulcin, (3R)-8-Hydroxy-3-(3-hydroxy-4-methoxyphenyl)-3,4-dihydro-1 H-isochromen-1-one], the Sweetness is given as 27.0%.
